According to the supplement of paper PMC11208160:
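Also: IS621 recombinase and bridge RNA in Escherichia coli cells.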

Test: recombinant barcode read abundance after kanamycin selection (control-corrected) (log10(CPM+1)); higher = more efficient recombination; sequences stand for … in AGTGCAGAGAAAATCGGCCAGTTTTCTCTGCCTGCAGTCCGCATGCCGT…AGATTTATGCAGCGGACTGCCTTTCTCCCAAAGTGATAAACCGGACAGTATCATGGACCGGTTTTCCCGGTAATCCGTATTTGCAAGGTTGGTTTCACT; site = the 11-nt target
Method in brief: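 For this pooled screen, each oligo contained a promoter, a target, a barcode and the J23119-driven first 104 bases of the bridge RNA. Gibson cloning placed it into a vector supplying the remaining 73 bp and a T7-inducible recombinase, and the pool was co-electroporated into E. coli with a donor plasmid. Recombination efficiency is derived from barcode counts per million at recombinant junctions after averaging and control correction, and is expressed on a log scale as log10(CPM+1), with selection on chloramphenicol/ampicillin/kanamycin plus 0.1 mM IPTG against a chloramphenicol/ampicillin LB agar control.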
In the case of “GCGTTGCCTTGGGTTCTAACCTGTTGCCT (site GGGTTGCCTAG)”, the “recombinant barcode read abundance (log10)” value is reported as 0.0557. With “GCGTTGCCTTGGGTTCTAACCTGTTGCCT (site GTGTTGCCTAG)” the “recombinant barcode read abundance (log10)” value was 0.0893. With “GCTAGTCCTTGGGTTCTAACCTGTTGCTG (site GCTAGTCCTAC)” the “recombinant barcode read abundance (log10)” value was 0.537. In the case of “GCTAGTCCTTGGGTTCTAACCTGTTGCTG (site GCTAGTCCTCA)”, the “recombinant barcode read abundance (log10)” value is reported as 0.83. In the case of “GCTCAGGCTTGGGTTCTAACCTGTTGCCT (site GCTCAGACTAG)”, the “recombinant barcode read abundance (log10)” value is reported as 0.142. In the case of “GCTCAGGCTTGGGTTCTAACCTGTTGCCT (site GCTCAGCCTAG)”, the “recombinant barcode read abundance (log10)” value is reported as 0.114. With “GCTCAGGCTTGGGTTCTAACCTGTTGCCT (site GCTCAGGCTAG)” the “recombinant barcode read abundance (log10)” value was 0.216. With “GCTCAGGCTTGGGTTCTAACCTGTTGCCT (site GCTCAGTCTAG)” the “recombinant barcode read abundance (log10)” value was 0.202. For “GCTCGTCCTTGGGTTCTAACCTGTTGCAT (site GCTCGTCCTAT)”, the “recombinant barcode read abundance (log10)” value was 1.03. With “GCTCGTCCTTGGGTTCTAACCTGTTGCAT (site GCTGGACCTAT)” the “recombinant barcode read abundance (log10)” value was 0.0399. With “GCTCTCCCTTGGGTTCTAACCTGTTGCCT (site GCACTCCCTAG)” the “recombinant barcode read abundance (log10)” value was 0.0891. In the case of “GCTCTCCCTTGGGTTCTAACCTGTTGCCT (site GCCCTCCCTAG)”, the “recombinant barcode read abundance (log10)” value is reported as 0.388. With “GCTCTCCCTTGGGTTCTAACCTGTTGCCT (site GCGCTCCCTAG)” the “recombinant barcode read abundance (log10)” value was 0.253. With “GCTCTCCCTTGGGTTCTAACCTGTTGCCT (site GCTCTCCCTAG)” the “recombinant barcode read abundance (log10)” value was 0.305. With “GCTGGACCTTGGGTTCTAACCTGTTGCCT (site ACTGGACCTAA)” the “recombinant barcode read abundance (log10)” value was 0.179. In the case of “GCTGGACCTTGGGTTCTAACCTGTTGCCT (site GCTGGACCTAG)”, the “recombinant barcode read abundance (log10)” value is reported as 2.15. For “GCTTCACCTTGGGTTCTAACCTGTTGCCT (site GCTTCACCTAG)”, the “recombinant barcode read abundance (log10)” value was 0.853. In the case of “GCTTCACCTTGGGTTCTAACCTGTTGCCT (site GCTTTACCTAA)”, the “recombinant barcode read abundance (log10)” value is reported as 0.103. With “GCTTGGACTTGGGTTCTAACCTGTTGCAT (site GCTTGGACTAT)” the “recombinant barcode read abundance (log10)” value was 1.29. For “GCTTGGACTTGGGTTCTAACCTGTTGCAT (site GTTTGGACTCT)”, the “recombinant barcode read abundance (log10)” value was 0.0332. In the case of “GCTTTACCTTGGGTTCTAACCTGTTGCTT (site GCTTCACCTAG)”, the “recombinant barcode read abundance (log10)” value is reported as 0.132. In the case of “GCTTTACCTTGGGTTCTAACCTGTTGCTT (site GCTTTACCTAA)”, the “recombinant barcode read abundance (log10)” value is reported as 0.368. For “GCTTTGACTTGGGTTCTAACCTGTTGCCT (site GCTTGGACTAG)”, the “recombinant barcode read abundance (log10)” value was 0.0213. With “GCTTTGACTTGGGTTCTAACCTGTTGCCT (site GCTTTGACTAG)” the “recombinant barcode read abundance (log10)” value was 0.788. With “GGAAAGACTTGGGTTCTAACCTGTTGCAC (site GGAAAGACTGT)” the “recombinant barcode read abundance (log10)” value was 2.02. In the case of “GGAAAGACTTGGGTTCTAACCTGTTGCAC (site TACCGCCCTAC)”, the “recombinant barcode read abundance (log10)” value is reported as 0.128. In the case of “GGAACCTCTTGGGTTCTAACCTGTTGCTT (site GGAACCTCTAA)”, the “recombinant barcode read abundance (log10)” value is reported as 0.697. In the case of “GGAACCTCTTGGGTTCTAACCTGTTGCTT (site GGAACGTCTAA)”, the “recombinant barcode read abundance (log10)” value is reported as 0.0112. For “GGAAGACCTTGGGTTCTAACCTGTTGCTA (site GGAAGACCTTA)”, the “recombinant barcode read abundance (log10)” value was 0.956. For “GGAAGACCTTGGGTTCTAACCTGTTGCTA (site GGAGGACCTAA)”, the “recombinant barcode read abundance (log10)” value was 0.246. In the case of “GGAATCCCTTGGGTTCTAACCTGTTGCCT (site GGAATACCTAG)”, the “recombinant barcode read abundance (log10)” value is reported as 0.0974. In the case of “GGAATCCCTTGGGTTCTAACCTGTTGCCT (site GGAATCCCTAG)”, the “recombinant barcode read abundance (log10)” value is reported as 1.64. In the case of “GGAATCCCTTGGGTTCTAACCTGTTGCCT (site GGAATGCCTAG)”, the “recombinant barcode read abundance (log10)” value is reported as 0.463. For “GGAATCCCTTGGGTTCTAACCTGTTGCCT (site GGAATTCCTAG)”, the “recombinant barcode read abundance (log10)” value was 0.0836. For “GGACAGTCTTGGGTTCTAACCTGTTGCGT (site CCGGTCCCTCT)”, the “recombinant barcode read abundance (log10)” value was 0.485. With “GGACAGTCTTGGGTTCTAACCTGTTGCGT (site GGACAGTCTAC)” the “recombinant barcode read abundance (log10)” value was 2.56.
